Assay results from patent US9302999B2, “Substituted triazoles as herbicides” (E. I. DU PONT DE NEMOURS AND COMPANY, priority 2012, dated 2016).

How the values were obtained:
Assay type in all cases: in vivo
[1] = system: wheat, winter (winter wheat, Triticum aestivum); test: Test D pre-/postemergence: wheat, winter
Outline: (§1)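 Scores run from 0 (no effect) to 100 (complete control), assigned by visual comparison with controls after 14 to 21 days in a controlled environment. Both preemergence application to silt loam and postemergence application to 1- to 4-leaf plants were tested.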

[2] = system: field poppy (Papaver rhoeas); test: Test D pre-/postemergence: field poppy
Outline: as §1

[3] = system: galium (catchweed bedstraw, Galium aparine); test: Test D pre-/postemergence: galium; conditions: Postemergence
Outline: as §1

[4] = system: foxtail, green (green foxtail Setaria viridis); test: Test F pre-/postemergence: foxtail, green; conditions: Preemergence
Source text: Seeds of plant species selected from corn (Zea mays), soybean (Glycine max), velvetleaf (Abutilon theophrasti), lambsquarters (Chenopodium album), poinsettia, wild (wild poinsettia, Euphorbia heterophylla), pigweed, palmer (palmer pigweed, Amaranthus palmeri), waterhemp (common waterhemp, Amaranthus rudis), surinam grass (Brachiaria decumbens), crabgrass, Brazil (Brazilian crabgrass, Digitaria horizontalis), panicum, fall (fall panicum Panicum dichotomiflorum), crabgrass, large (large crabgrass, Digitaria sanguinalis), foxtail, giant (giant foxtail, Setaria faberii), foxtail, green (green foxtail Setaria viridis), goosegrass (Eleusine indica), ragweed (common ragweed, Ambrosia elatior), barnyardgrass (Echinochloa crus-galli), sandbur (southern sandbur, Cenchrus echinatus), arrowleaf sida (Sida rhombifolia), ryegrass, Italian (Italian ryegrass, Lolium multiflorum), dayflower, VA (Virginia (VA) dayflower, Commelina virginica), field bindweed (Convolvulus arvensis), cocklebur (common cocklebur, Xanthium strumarium), morningglory (Ipomoea coccinea), nightshade (eastern black nightshade, Solanum ptycanthum), kochia (Kochia scoparia), nutsedge, yellow (yellow nutsedge, Cyperus esculentus), johnsongrass (Sorghum halepense), smartweed (ladysthumb smartweed, Polygonum persicaria), and beggarticks (hairy beggarticks, Bidens pilosa), were planted into a silt loam soil and treated preemergence with test chemicals formulated in a non-phytotoxic solvent mixture which included a surfactant. At the same time, plants selected from these crop and weed species and also pigweed (Amaranthus retroflexus), waterhemp_RES1 (ALS/Triazine resistant common waterhemp, Amaranthus rudis) and waterhemp_RES2 (ALS/HPPD resistant common waterhemp, Amaranthus rudis) were planted in pots containing a planting medium comprising spaghnum peat moss, vermiculite, wetting agent and starter nutrients treated with postemergence applications of some of the test chemicals formulated in the same manner. Plants ranged in height from 2 to 18 cm for postemergence treatments (1- to 4-leaf stage).
Treated plants and controls were maintained in a greenhouse for 14 to 21 days, after which time all species were compared to controls and visually evaluated. Plant response ratings, summarized in Table E, are based on a scale of 0 to 100 where 0 is no effect and 100 is complete control. A dash (-) response means no test result.

[5] = system: pigweed (Amaranthus retroflexus); test: Test D pre-/postemergence: pigweed
Outline: as §1

[6] = system: poinsettia, wild (wild poinsettia, Euphorbia heterophylla); test: Test F pre-/postemergence: poinsettia, wild
Outline: (§2)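 0–100 visual control scores, taken 14–21 d after application in the greenhouse. Preemergence treatment was made to silt loam soil at sowing. Postemergence sprays hit 1- to 4-leaf plants (2–18 cm) in peat/vermiculite mix. Surfactant-containing non-phytotoxic solvent served as the vehicle.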

kochia (Kochia scoparia) = test: Test F pre-/postemergence: kochia; conditions: Preemergence
Outline: as §2

[7] = Postemergence, 31 g ai/ha, scale 0 to 100 (0 no effect, 100 complete control)
[8] = Postemergence, 62 g ai/ha, scale 0 to 100 (0 no effect, 100 complete control)
[9] = Postemergence, 125 g ai/ha, scale 0 to 100, 0 no effect, 100 complete control
[10] = Postemergence, 16 g ai/ha, scale 0 to 100
[11] = Preemergence, 16 g ai/ha, scale 0 to 100, 0 no effect, 100 complete control
[12] = Preemergence, 31 g ai/ha, scale 0 to 100, 0 no effect, 100 complete control
[13] = Preemergence, 62 g ai/ha, scale 0 to 100
[14] = Preemergence, 125 g ai/ha, scale 0 to 100
[15] = 8 g ai/ha, scale 0 to 100, 0 no effect, 100 complete control
[16] = 16 g ai/ha, scale 0 to 100, 0 no effect, 100 complete control
[17] = 31 g ai/ha, scale 0 to 100, 0 no effect, 100 complete control
[18] = Postemergence, 31 g ai/ha, scale 0 to 100
[19] = Postemergence, 62 g ai/ha, scale 0 to 100
[20] = Postemergence, 125 g ai/ha, scale 0 to 100
[21] = Postemergence, 250 g ai/ha, scale 0 to 100
[22] = Preemergence, 250 g ai/ha, scale 0 to 100

## CCOc1nn(-c2ccc(F)cc2)nc1Cc1ccnc(C(F)(F)F)c1 [Compound 196, 4-[[5-ethoxy-2-(4-fluorophenyl)-2H-1,2,3-triazol-4-yl]methyl]-2-(trifluoromethyl)pyridine]
[1]; [7]
  Plant response rating: Wheat, Winter: 20
[1]; [8]
  Plant response rating: Wheat, Winter: 25
[1]; [9]
  Plant response rating: Wheat, Winter: 35
[1]; [10]
  Plant response rating, Wheat, Winter: 15
[1]; [11]
  Plant response rating, Wheat, Winter: 5
[1]; [12]
  Plant response rating, Wheat, Winter: 5
[1]; [13]
  Plant response rating, Wheat, Winter: 10
[1]; [14]
  Plant response rating, Wheat, Winter: 15
[2]; [7]
  Plant response rating: Field Poppy: 100
[2]; [8]
  Plant response rating: Field Poppy: 100
[2]; [9]
  Plant response rating: Field Poppy: 100
[2]; [10]
  Plant response rating, Field Poppy: 100
[2]; [11]
  Plant response rating, Field Poppy: 95
[2]; [12]
  Plant response rating, Field Poppy: 90
[2]; [13]
  Plant response rating, Field Poppy: 100
[2]; [14]
  Plant response rating, Field Poppy: 100
[3]; 31 g ai/ha, scale 0 to 100 (0 no effect, 100 complete control)
  Plant response rating: Galium: 85
[3]; 62 g ai/ha, scale 0 to 100 (0 no effect, 100 complete control)
  Plant response rating: Galium: 70
[3]; 125 g ai/ha, scale 0 to 100, 0 no effect, 100 complete control
  Plant response rating: Galium: 90
[3]; 16 g ai/ha, scale 0 to 100
  Plant response rating, Galium: 70
[4]; [15]
  Plant response rating, Foxtail, Green: 75
[4]; [16]
  Plant response rating, Foxtail, Green: 75
[4]; [17]
  Plant response rating, Foxtail, Green: 85
[4]; 62 g ai/ha, scale 0 to 100
  Plant response rating, Foxtail, Green: 100
[4]; 125 g ai/ha, scale 0 to 100
  Plant response rating, Foxtail, Green: 100
[5]; [7]
  Plant response rating: Pigweed: 95
[5]; [8]
  Plant response rating: Pigweed: 95
[5]; [9]
  Plant response rating: Pigweed: 100
[5]; [10]
  Plant response rating, Pigweed: 85
[5]; [11]
  Plant response rating, Pigweed: 65
[5]; [12]
  Plant response rating, Pigweed: 100
[5]; [13]
  Plant response rating, Pigweed: 100
[5]; [14]
  Plant response rating, Pigweed: 100
[6]; Postemergence, 8 g ai/ha, scale 0 to 100
  Plant response rating, Poinsettia, Wild: 75
[6]; [10]
  Plant response rating, Poinsettia, Wild: 85
[6]; [18]
  Plant response rating, Poinsettia, Wild: 95
[6]; [19]
  Plant response rating, Poinsettia, Wild: 95
[6]; [20]
  Plant response rating, Poinsettia, Wild: 95
[6]; Preemergence, 8 g ai/ha, scale 0 to 100, 0 no effect, 100 complete control
  Plant response rating, Poinsettia, Wild: 0
[6]; [11]
  Plant response rating, Poinsettia, Wild: 50
[6]; [12]
  Plant response rating, Poinsettia, Wild: 50
[6]; [14]
  Plant response rating, Poinsettia, Wild: 75
Kochia (Kochia scoparia); [15]
  Plant response rating, Kochia: 5
Kochia (Kochia scoparia); [16]
  Plant response rating, Kochia: 5
Kochia (Kochia scoparia); [17]
  Plant response rating, Kochia: 10
Kochia (Kochia scoparia); 62 g ai/ha, scale 0 to 100
  Plant response rating, Kochia: 100
Kochia (Kochia scoparia); 125 g ai/ha, scale 0 to 100
  Plant response rating, Kochia: 100

## CCc1nn(-c2ccc(C(F)(F)F)cc2)nc1Oc1ccnc(C(F)(F)F)c1 [Compound 169]
[4]; [16]
  Plant response rating, Foxtail, Green: 98
[4]; [17]
  Plant response rating, Foxtail, Green: 100
[4]; 62 g ai/ha, scale 0 to 100
  Plant response rating, Foxtail, Green: 100
[4]; 125 g ai/ha, scale 0 to 100
  Plant response rating, Foxtail, Green: 100
[4]; 250 g ai/ha, scale 0 to 100
  Plant response rating, Foxtail, Green: 100
[6]; [21]
  Plant response rating, Poinsettia, Wild: 85
[6]; [10]
  Plant response rating, Poinsettia, Wild: 50
[6]; [18]
  Plant response rating, Poinsettia, Wild: 60
[6]; [19]
  Plant response rating, Poinsettia, Wild: 60
[6]; [20]
  Plant response rating, Poinsettia, Wild: 70
[6]; [11]
  Plant response rating, Poinsettia, Wild: 0
[6]; [12]
  Plant response rating, Poinsettia, Wild: 0
[6]; [14]
  Plant response rating, Poinsettia, Wild: 40
[6]; [22]
  Plant response rating, Poinsettia, Wild: 98
Kochia (Kochia scoparia); [16]
  Plant response rating, Kochia: 0
Kochia (Kochia scoparia); [17]
  Plant response rating, Kochia: 95
Kochia (Kochia scoparia); 62 g ai/ha, scale 0 to 100
  Plant response rating, Kochia: 95
Kochia (Kochia scoparia); 125 g ai/ha, scale 0 to 100
  Plant response rating, Kochia: 98
Kochia (Kochia scoparia); 250 g ai/ha, scale 0 to 100
  Plant response rating, Kochia: 98

## CCCc1nn(-c2ccc(F)c(F)c2)nc1Oc1ccnc(C(F)(F)F)c1 [Compound 172]
[4]; [17]
  Plant response rating, Foxtail, Green: 75
[4]; 125 g ai/ha, scale 0 to 100
  Plant response rating, Foxtail, Green: 100
[4]; 250 g ai/ha, scale 0 to 100
  Plant response rating, Foxtail, Green: 100
[6]; [21]
  Plant response rating, Poinsettia, Wild: 100
[6]; [18]
  Plant response rating, Poinsettia, Wild: 80
[6]; [20]
  Plant response rating, Poinsettia, Wild: 100
[6]; [12]
  Plant response rating, Poinsettia, Wild: 20
[6]; [14]
  Plant response rating, Poinsettia, Wild: 50
[6]; [22]
  Plant response rating, Poinsettia, Wild: 98
Kochia (Kochia scoparia); [17]
  Plant response rating, Kochia: 20
Kochia (Kochia scoparia); 125 g ai/ha, scale 0 to 100
  Plant response rating, Kochia: 100
Kochia (Kochia scoparia); 250 g ai/ha, scale 0 to 100
  Plant response rating, Kochia: 100
